Data published in patent US12565504B2, “Spirocyclic O-glycoprotein-2-acetamido-2-deoxy-3-d-glucopyranosidase inhibitors” (BIOGEN MA INC., priority 2019, dated 2026).

What was measured:
[1] = target: Recombinant full length human OGA enzyme (Homo sapiens (Human), UniProt O60502); test: OGA Enzyme Inhibition Biochemical Assay; settings: 1 nM OGA, 100 μM 4-MUGlcNAc, 90 minutes, pH 6.4
Procedure: Recombinant full length human OGA enzyme was purchased from Origene. 4-MUGlcNAc substrate was purchased from Sigma. All other reagents were purchased from Sigma or Fisher. Assay buffer consists of the McIlvaine buffer system, pH 6.4 (0.2M Na2HPO4 mixed with 0.1M citric acid) and 0.01% BSA. […] Reactions were incubated for 90 minutes at room temperature and quenched with 40 μl of 3M glycine, pH 10 and read on a Perkin Elmer Envision plate reader (Ex: 355 nm/Em: 460 nm). Compounds were tested with a 10-point dose-response starting from 20 μM with a 4-fold dilution. Data was fit using GraphPad Prism using a 4-parameter fit with variable slope.

OGA (S400 O-GLCNAC) = OGA (S400 O-GLCNAC) (Homo sapiens (Human), UniProt O60502); test: Cellular OGA-Tau MSD Assay; assay type: cell-based; settings: HEK-293T cells transfected with OGT and Tau-V5; Tau-S400-GlcNAc MSD readout
OGA (S400 O-GLCNAC), sequence (O60502 whole entry): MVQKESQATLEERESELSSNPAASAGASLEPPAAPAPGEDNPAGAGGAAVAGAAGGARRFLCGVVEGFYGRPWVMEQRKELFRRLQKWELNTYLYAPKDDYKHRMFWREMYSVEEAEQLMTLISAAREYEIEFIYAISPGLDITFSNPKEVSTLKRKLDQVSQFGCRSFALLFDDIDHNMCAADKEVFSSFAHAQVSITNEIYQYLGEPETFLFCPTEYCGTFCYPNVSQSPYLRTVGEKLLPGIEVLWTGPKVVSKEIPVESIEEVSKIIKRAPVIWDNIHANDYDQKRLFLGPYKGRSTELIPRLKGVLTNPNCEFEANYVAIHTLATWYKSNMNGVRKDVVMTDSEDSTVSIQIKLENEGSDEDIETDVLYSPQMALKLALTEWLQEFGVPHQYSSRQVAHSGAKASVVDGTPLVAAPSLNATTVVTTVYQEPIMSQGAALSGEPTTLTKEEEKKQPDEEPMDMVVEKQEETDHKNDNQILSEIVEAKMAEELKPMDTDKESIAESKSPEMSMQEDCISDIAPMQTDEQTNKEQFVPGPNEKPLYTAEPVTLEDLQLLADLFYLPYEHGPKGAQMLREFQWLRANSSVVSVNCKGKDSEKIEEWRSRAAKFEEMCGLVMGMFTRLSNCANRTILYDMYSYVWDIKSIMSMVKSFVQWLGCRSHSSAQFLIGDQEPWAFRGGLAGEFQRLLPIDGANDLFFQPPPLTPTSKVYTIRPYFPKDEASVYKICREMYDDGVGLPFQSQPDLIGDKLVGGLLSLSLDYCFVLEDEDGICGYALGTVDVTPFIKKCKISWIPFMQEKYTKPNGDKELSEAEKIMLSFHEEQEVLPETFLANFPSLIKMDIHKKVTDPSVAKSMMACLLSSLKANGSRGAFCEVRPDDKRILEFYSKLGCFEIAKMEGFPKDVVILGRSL
Procedure: HEK-293T cells were transfected with OGT and Tau-V5 plasmids using Lipofectamine and grown overnight. Next day, the cells were collected and re-plated at 1×10^5 cells per well in 96 well plates. Cells were incubated for 4 hr at 37° C., before compounds were added at 1 uM, with 3-fold dilutions in a 10-point titration. Cell plates were incubated with compounds overnight at 37° C. The next day media was removed from wells by gentle aspiration and 120 ul of 1× Cell Lysis buffer mixed with protease and phosphatase cocktail added to each well. A freeze thaw was performed at −80° C., then mixed before transferring 50 μl to MSD plates coated with V5-tag antibody to capture Tau. MSD Plates were incubated overnight at 4° C., on a plate shaker. The following day, plates were washed and incubated with Tau-S400-GlcNAc antibody for 2 hr and then developed with rabbit Sulfo-tag antibody. Final read out was carried out on an MSD 600 reader. The data was analyzed using Graph Pad or Genedata, the data was normalized and % activity versus log of compound concentration was plotted. The ICso values were obtained from a 4 parameter fit.

P-gp (MDR1) = test: MDR1-MDCK Efflux Ratio Assay; assay type: in vitro ADME; settings: dog, MDR1-MDCK cells, pH 7.4, read-out: MDR1-MDCK Efflux Ratio (B-A/A-B)
Procedure: MDR1-MDCK cell monolayers were grown to confluence on microporous polyester membranes in 96-well Corning insert plates. The permeability assay buffer was Hanks' Balanced Salt Solution containing 10 mM HEPES at pH of 7.4. Loperamide (1 μM) was used as a positive control P-gp substrate. Propranolol and Bestatin (1 μM) were used as high and low permeability comparators, respectively.
Test compounds or positive control P-gp substrate/permeability comprators were added to respective apical and basolateral chambers for bidirectional assessment of permeability. Receiver buffer (transport buffer supplemented with 1% bovine serum albumin) was added to respective receiver chambers. MDR1-MDCK cells were incubated with test compounds at 37° C. with 5% CO2 for 2 hr. Samples were collected from the donor chamber at both 0 and 120 minutes, and from the receiver chamber at 120 minutes. Test and control compound concentrations were determined using LC-MS/MS analysis. Each determination was performed in triplicate.

[2] = Rat Liver Microsome Stability Assay; settings: rat liver microsomes 0.5 mg/mL, compound 1 μM; Qh 55 mL/minute/kg
Procedure: Aliquots (40 uL) at 0, 5, 10, 15, 25 and 40 minutes post NADPH addition (or compound addition for reactions in absence of NADPH) were transferred into individual 96-well plate wells containing 40 ng/ml of 8-cyclopently-1,3-dipropylxanthine (CPDPX, internal standard) in 160 uL acetonitrile:methanol (1:1 v/v).
The LC/MS/MS system consisted of an ultra high throughput RapidFire® 300 system (Agilent Technologies, Santa Clara, CA) coupled to a Triple Quad 5500 mass spectrometer (ABSciex, Foster City, CA). Sample load and wash were performed on a RapidFire® C4 cartridge using 0.1% formic acid in water as mobile phase A and sample elution using 0.1% formic acid in acetonitrile:methanol (1:1 v/v) as mobile phase B.
CLint, app (apparent intrinsic clearance) was calculated using the following equation for microsome stability.
[formula] • where “a” represents 45 grams of liver/kg of body weight for rat. • CLint,app (apparent intrinsic clearance) was calculated using the following equation for hepatocyte stability: • CLhep (hepatic clearance) was calculated using the following equation for microsomes
[formula] • using 55 mL/minute/kg as Qh (hepatic blood flow) for rat.

Recombinant full length human OGA enzyme, sequence (O60502 whole entry): as above

| IC50 [1] [nM] | IC50 (OGA (S400 O-GLCNAC)) [nM] | efflux ratio at 2 hr (P-gp (MDR1)) | RLM % Qh (%) [2] [%] | efflux ratio at 2 h (P-gp (MDR1)) | Compound |
| --- | --- | --- | --- | --- | --- |
| 1 | 5 | 14 | 62 | – | CC(=O)Nc1nc(F)c(CN2C[C@@]3(Cc4ncccc4O3)C[C@@H]2C)s1 (single isomer, unassigned) [Example 19-a] |
| – | 24 | – | 89 | 5.4 | COc1cc2c(cn1)[C@@]1(C[C@H](C)N(Cc3sc(NC(C)=O)nc3F)C1)OC2 (single isomer, unassigned) [Example 75-b] |
| 55 | 62 | 17.7 | 58 | – | COc1cc2c(cn1)[C@]1(C[C@H](C)N(Cc3cnc(NC(C)=O)s3)C1)OC2 (single isomer, unassigned) [Example 76-a] |
| 160 | 38 | 8.9 | 89 | – | COc1cc2c(cn1)[C@@]1(C[C@H](C)N(Cc3cnc(NC(C)=O)s3)C1)OC2 (single isomer, unassigned) [Example 76-b] |
| 330 | 1000 | 1.7 | 81 | – | CC(=O)Nc1ncc(CN2CCC3(Cc4ccccc4O3)C2)s1 (stereo not drawn) [Example 3, N-(5-((3H-Spiro[benzofuran-2,3′-pyrrolidin]-1′-yl)methyl)thiazol-2-yl)acetamide] |
| 360 | > 1000 | 3.1 | 78 | – | COc1cccc2c1OC1(CCN(Cc3sc(NC(C)=O)nc3F)C1)C2 (stereo not drawn) [Example 4, N-(4-Fluoro-5-((7-methoxy-3H-spiro[benzofuran-2,3′-pyrrolidin]-1′-yl)methyl)thiazol-2-yl)acetamide] |
| 54 | 301 | 6.7 | 46 | – | CC(=O)Nc1nc(F)c(CN2CCC3(Cc4cnc(Cl)cc4O3)C2)s1 (stereo not drawn) [Example 7, N-(5-((6-Chloro-3H-spiro[furo[3,2-c]pyridine-2,3′-pyrrolidin]-1′-yl)methyl)-4-fluorothiazol-2-yl)acetamide] |
| 1 | 8 | 5.2 | 75 | – | CC(=O)Nc1nc(F)c(CN2C[C@@]3(Cc4cc(Cl)ncc4O3)C[C@@H]2C)s1 [Example 10, N-(5-(((2R,5′S)-5-Chloro-5′-methyl-3H-spiro[furo[2,3-c]pyridine-2,3′-pyrrolidin]-1′-yl)methyl)-4-fluorothiazol-2-yl)acetamide] |
| 6 | 9 | 8.4 | 70 | – | CC(=O)Nc1ncc(CN2C[C@@]3(Cc4cc(Cl)ncc4O3)C[C@@H]2C)s1 [Example 11, N-(5-(((2R,5′S)-5-Chloro-5′-methyl-3H-spiro[furo[2,3-c]pyridine-2,3′-pyrrolidin]-1′-yl)methyl)thiazol-2-yl)acetamide] |
| 17 | 25 | 11 | 39 | – | CC(=O)Nc1ncc(CN2C[C@@]3(Cc4cc(C(F)(F)F)ncc4O3)C[C@@H]2C)s1 [Example 22, N-(5-(((2R,5′S)-5′-Methyl-5-(trifluoromethyl)-3H-spiro[furo[2,3-c]pyridine-2,3′-pyrrolidin]-1′-yl)methyl)thiazol-2-yl)acetamide] |
| 1 | 12 | 6.5 | 75 | – | CC(=O)Nc1nc(F)c(CN2C[C@@]3(Cc4cc(C5CC5)ncc4O3)C[C@@H]2C)s1 [Example 24, N-(5-(((2R,5′S)-5-Cyclopropyl-5′-methyl-3H-spiro[furo[2,3-c]pyridine-2,3′-pyrrolidin]-1′-yl)methyl)-4-fluorothiazol-2-yl)acetamide] |
| 3 | 5 | 5.6 | 51 | – | CC(=O)Nc1nc(F)c(CN2C[C@@]3(Cc4cc(C(F)F)ncc4O3)C[C@@H]2C)s1 [Example 26, N-(5-(((2R,5′S)-5-(Difluoromethyl)-5′-methyl-3H-spiro[furo[2,3-c]pyridine-2,3′-pyrrolidin]-1′-yl)methyl)-4-fluorothiazol-2-yl)acetamide] |
| < 1 | 3 | 17.7 | 55 | – | CNc1cc2c(cn1)O[C@]1(C2)C[C@H](C)N(Cc2sc(NC(C)=O)nc2F)C1 [Example 29, N-(4-Fluoro-5-(((2R,5′S)-5′-methyl-5-(methylamino)-3H-spiro[furo[2,3-c]pyridine-2,3′-pyrrolidin]-1′-yl)methyl)thiazol-2-yl)acetamide] |
| < 1 | 2 | 22 | 82 | – | COCCN(C)c1cc2c(cn1)O[C@]1(C2)C[C@H](C)N(Cc2sc(NC(C)=O)nc2F)C1 [Example 33, N-(4-Fluoro-5-(((2R,5′S)-5-((2-methoxyethyl)(methyl)amino)-5′-methyl-3H-spiro[furo[2,3-c]pyridine-2,3′-pyrrolidin]-1′-yl)methyl)thiazol-2-yl)acetamide] |
| < 1 | 4 | 39.5 | 50 | – | CC(=O)Nc1ncc(CN2C[C@@]3(Cc4cc(N5CCC5)ncc4O3)C[C@@H]2C)s1 [Example 35, N-(5-(((2R,5′S)-5-(Azetidin-1-yl)-5′-methyl-3H-spiro[furo[2,3-c]pyridine-2,3′-pyrrolidin]-1′-yl)methyl)thiazol-2-yl)acetamide] |
| < 1 | 8 | 9.3 | 51 | – | CC(=O)Nc1nc(F)c(CN2C[C@@]3(Cc4cc(N5CCOCC5)ncc4O3)C[C@@H]2C)s1 [Example 36, N-(4-Fluoro-5-(((2R,5′S)-5′-methyl-5-morpholino-3H-spiro[furo[2,3-c]pyridine-2,3′-pyrrolidin]-1′-yl)methyl)thiazol-2-yl)acetamide] |
| 1.2 | 9.9 | 29.5 | 42 | – | CC(=O)Nc1ncc(CN2C[C@@]3(Cc4cc(N5C[C@@H](C)O[C@@H](C)C5)ncc4O3)C[C@@H]2C)s1 [Example 38, N-(5-(((2R,5′S)-5-((2R,6S)-2,6-Dimethylmorpholino)-5′-methyl-3H-spiro[furo[2,3-c]pyridine-2,3′-pyrrolidin]-1′-yl)methyl)thiazol-2-yl)acetamide] |
| 0.5 | 4.9 | 9.7 | 52 | – | CC(=O)Nc1nc(F)c(CN2C[C@@]3(Cc4cc(N5C[C@@H](C)O[C@@H](C)C5)ncc4O3)C[C@@H]2C)s1 [Example 39, N-(5-(((2R,5′S)-5-((2R,6S)-2,6-Dimethylmorpholino)-5′-methyl-3H-spiro[furo[2,3-c]pyridine-2,3′-pyrrolidin]-1′-yl)methyl)-4-fluorothiazol-2-yl)acetamide] |

| Compound | IC50 [1] [nM] | IC50 (OGA (S400 O-GLCNAC)) [nM] | efflux ratio at 2 hr (P-gp (MDR1)) | RLM % Qh (%) [2] [%] | efflux ratio at 2 h (P-gp (MDR1)) |
| --- | --- | --- | --- | --- | --- |
| CC(=O)Nc1ncc(CN2CCC3(Cc4cnc(Cl)cc4O3)C2)s1 (stereo not drawn) [Example 8, N-(5-((6-Chloro-3H-spiro[furo[3,2-c]pyridine-2,3′-pyrrolidin]-1′-yl)methyl)thiazol-2-yl)acetamide] | 74 | 654 | 9.4 | 47 | – |
